Experiment [1] deals with Transmembrane protease serine 4 (Homo sapiens) (UniProt Q9NRS4). Description: Inhibition of TMPRSS4 serine protease domain (Val 205 to Leu 437 residues) (unknown origin) expressed in Escherichia coli BL21 (DE3) at 10 uM using […]-Gln-Ala-Arg-7-amido-4-methylcoumarin hydrochloride substrate and measured for 5 mins at 5 mins intervals by fluorescence based assay relative to control.

Experiment [2] has the same target. Description: Inhibition of TMPRSS4 serine protease domain (Val 205 to Leu 437 residues) (unknown origin) expressed in Escherichia coli BL21 (DE3) at 30 uM using […]-Gln-Ala-Arg-7-amido-4-methylcoumarin hydrochloride substrate and measured for 5 mins at 5 mins intervals by fluorescence based assay relative to control.
For experiment [3] the target is unchanged. Description: Inhibition of TMPRSS4 serine protease domain (Val 205 to Leu 437 residues) (unknown origin) expressed in Escherichia coli BL21 (DE3) using […]-Gln-Ala-Arg-7-amido-4-methylcoumarin hydrochloride substrate and measured for 5 mins at 5 mins intervals by fluorescence based assay relative to control.
The target is the same in experiment [4]. Description: Inhibition of TMPRSS4 serine protease domain (Val 205 to Leu 437 residues) (unknown origin) expressed in Escherichia coli BL21 (DE3) at 100 uM using […]-Gln-Ala-Arg-7-amido-4-methylcoumarin hydrochloride substrate and measured for 5 mins at 5 mins intervals by fluorescence based assay relative to control.

Sequence of Transmembrane protease serine 4 (Homo sapiens) (Q9NRS4 whole entry, the tested form may be a part): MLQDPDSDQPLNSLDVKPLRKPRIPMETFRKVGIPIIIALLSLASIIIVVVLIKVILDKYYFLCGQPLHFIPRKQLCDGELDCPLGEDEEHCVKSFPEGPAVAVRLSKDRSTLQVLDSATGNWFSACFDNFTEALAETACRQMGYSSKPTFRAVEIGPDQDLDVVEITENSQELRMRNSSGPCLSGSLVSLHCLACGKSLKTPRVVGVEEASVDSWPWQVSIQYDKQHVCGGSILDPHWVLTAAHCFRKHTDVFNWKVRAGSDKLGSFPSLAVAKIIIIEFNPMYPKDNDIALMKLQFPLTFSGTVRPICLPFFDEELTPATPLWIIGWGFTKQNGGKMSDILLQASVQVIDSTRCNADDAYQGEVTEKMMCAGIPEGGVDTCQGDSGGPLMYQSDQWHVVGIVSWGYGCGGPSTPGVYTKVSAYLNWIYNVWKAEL

What is called inhibition is the change of the read-out against control, counted positive when it falls. Consider `O=C(Nc1ccc(C(F)(F)F)cc1)c1cc(Cl)ccc1O`, for which the inhibition in experiment [1] is 22%; in experiment [2], 100%; in experiment [3], “Dose-dependent effect”.

`O=C(Nc1nc(C(F)(F)F)cs1)c1cc(Cl)ccc1O`: the inhibition is 100% in experiment [4], 61% in experiment [2] and “Dose-dependent effect” in experiment [3].

As for `O=C(Nc1ccc(Cl)nc1)c1cc(Cl)ccc1O`, the inhibition in experiment [4] is 39%; in experiment [2] it was 6%; in experiment [3] it was “Dose-dependent effect”.

For the compound `Cc1ccc(O)c(C(=O)Nc2cc(C(F)(F)F)cc(C(F)(F)F)c2)c1`, the inhibition is 0% in experiment [1], 64% in experiment [2] and “Dose-dependent effect” in experiment [3].

With `N#Cc1ccc(NC(=O)c2cc(Cl)ccc2O)cc1`, the inhibition in experiment [4] was 69%; in experiment [2] it was 29%; in experiment [3], “Dose-dependent effect”.

Take `O=C(Nc1nccs1)c1cc(Cl)ccc1O`: the inhibition in experiment [4] was 90%; in experiment [2], 44%; in experiment [3], “Dose-dependent effect”.

In the case of `O=C(Nc1cc(C(F)(F)F)cc(C(F)(F)F)c1)c1ccc(Cl)cc1O`, the inhibition was 29% in experiment [1], 74% in experiment [2] and “Dose-dependent effect” in experiment [3].

With `COc1c(C(F)(F)F)cc(NC(=O)c2cc(Cl)ccc2O)cc1C(F)(F)F`, the inhibition in experiment [1] is 56%; in experiment [2] it was 80%; in experiment [3], “Dose-dependent effect”.

For the compound `O=C(Nc1ccc(C(F)(F)F)c(C(F)(F)F)c1)c1cc(Cl)ccc1O`, the inhibition in experiment [1] is 37%; in experiment [2], 59%; in experiment [3], “Dose-dependent effect”.

Turning to `Cc1cc(C)nc(NC(=O)c2cc(Cl)ccc2O)n1`, the values for the inhibition in experiment [4], in experiment [2] and in experiment [3] were 0%, 0% and “Dose-dependent effect”, respectively.

On to `O=C(Nc1ncc(C(F)(F)F)cc1Cl)c1cc(Cl)ccc1O`, for which the inhibition in experiment [4] was 0%; in experiment [2], 0%; in experiment [3], “Dose-dependent effect”.

In the case of `O=C(Nc1cc(Cl)cc(Cl)c1)c1cc(Cl)ccc1O`, the inhibition in experiment [1] is 15%; in experiment [2], 58%; in experiment [3], “Dose-dependent effect”.

As to `O=C(Nc1cc(C(F)(F)F)cc(C(F)(F)F)c1)c1ccccc1O`, the inhibition in experiment [1] is 0%; in experiment [2], 20%; in experiment [3] it was “Dose-dependent effect”.

As to `O=C(Nc1c(F)c(F)nc(F)c1F)c1cc(Cl)ccc1O`, the inhibition in experiment [4] was 51%; in experiment [2], 31%; in experiment [3] it was “Dose-dependent effect”.

On to `O=C(Nc1ccccn1)c1cc(Cl)ccc1O`, for which the inhibition is 11% in experiment [4], 0% in experiment [2] and “Dose-dependent effect” in experiment [3].

As for `O=C(Nc1cc(C(F)(F)F)ccc1Br)c1cc(Cl)ccc1O`, the inhibition in experiment [1] was 40%; in experiment [2] it was 100%; in experiment [3] it was “Dose-dependent effect”.

As to `O=C(Nc1ccc(C(F)(F)F)cn1)c1cc(Cl)ccc1O`, the inhibition in experiment [4] is 47%; in experiment [2], 25%; in experiment [3], “Dose-dependent effect”.

Turning to `O=C(Nc1cc(C(F)(F)F)c(Br)c(C(F)(F)F)c1)c1cc(Cl)ccc1O`, the results for the inhibition in experiment [1], in experiment [2] and in experiment [3] were 58%, 85% and “Dose-dependent effect”, respectively.

Turning to `O=C(Nc1cc(C(F)(F)F)ccc1C(F)(F)F)c1cc(Cl)ccc1O`, the inhibition was 46% in experiment [1], 54% in experiment [2] and “Dose-dependent effect” in experiment [3].

Turning to `O=C(Nc1cc(C(F)(F)F)cc(C(F)(F)F)c1Cl)c1cc(Cl)ccc1O`, the inhibition in experiment [1] is 43%; in experiment [2], 100%; in experiment [3] it was “Dose-dependent effect”.

As to `O=C(Nc1cc(Cl)c(Cl)c(Cl)c1)c1cc(Cl)ccc1O`, the inhibition is 6% in experiment [1], 23% in experiment [2] and “Dose-dependent effect” in experiment [3].

In the case of `O=C(Nc1ccnc(Cl)c1)c1cc(Cl)ccc1O`, the inhibition in experiment [4] was 21%; in experiment [2] it was 35%; in experiment [3], “Dose-dependent effect”.

Take `CC(=O)Nc1ccc(O)c(C(=O)Nc2cc(C(F)(F)F)cc(C(F)(F)F)c2)c1`: the inhibition in experiment [1] was 0%; in experiment [2], 0%; in experiment [3], “Dose-dependent effect”.

In the case of `Cc1c(C(F)(F)F)cc(NC(=O)c2cc(Cl)ccc2O)cc1C(F)(F)F`, the inhibition in experiment [1] was 51%; in experiment [2] it was 94%; in experiment [3], “Dose-dependent effect”.

Regarding `Nc1ccc(O)c(C(=O)Nc2cc(C(F)(F)F)cc(C(F)(F)F)c2)c1`, the figures for the inhibition in experiment [1], in experiment [2] and in experiment [3] were 3%, 30% and “Dose-dependent effect”, respectively.

Take `Cc1csc(NC(=O)c2cc(Cl)ccc2O)n1`: the inhibition in experiment [4] is 67%; in experiment [2], 0%; in experiment [3] it was “Dose-dependent effect”.

Regarding `O=C(Nc1cc(C(F)(F)F)cc(C(F)(F)F)c1)c1cnc2ccccc2c1O`, the inhibition in experiment [1] is 0%; in experiment [2], 0%; in experiment [3], “Dose-dependent effect”.

As for `O=C(Nc1ncccn1)c1cc(Cl)ccc1O`, the figures for the inhibition in experiment [4], in experiment [2] and in experiment [3] were 2%, 0% and “Dose-dependent effect”, respectively.

`COc1ccc(O)c(C(=O)Nc2cc(C(F)(F)F)cc(C(F)(F)F)c2)c1`: the values for the inhibition in experiment [1], in experiment [2] and in experiment [3] were 0%, 53% and “Dose-dependent effect”, respectively.

On to `O=C(Nc1cc(C(F)(F)F)cc(C(F)(F)F)c1)c1cc(Br)ccc1O`, for which the inhibition in experiment [1] is 54%; in experiment [2], 84%; in experiment [3], “Dose-dependent effect”.

Consider `NC(=O)c1ccc(O)c(C(=O)Nc2cc(C(F)(F)F)cc(C(F)(F)F)c2)c1`, for which the inhibition was 0% in experiment [1], 21% in experiment [2] and “Dose-dependent effect” in experiment [3].

As for `O=C(Nc1cc(C(F)(F)F)cc(C(F)(F)F)c1)c1cc(Cl)cc(Cl)c1O`, the inhibition is 100% in experiment [1], 100% in experiment [2] and “Dose-dependent effect” in experiment [3].

On to `O=C(Nc1cc(C(F)(F)F)cc(C(F)(F)F)c1)c1cccc(Cl)c1O`, for which the inhibition in experiment [1] is 61%; in experiment [2] it was 93%; in experiment [3], “Dose-dependent effect”.

For `O=C(Nc1cc(C(F)(F)F)cc(C(F)(F)F)c1)c1cc(Cl)cnc1O`, the inhibition in experiment [1] was 0%; in experiment [2], 19%; in experiment [3] it was “Dose-dependent effect”.

Take `O=C(Nc1ccncc1Cl)c1cc(Cl)ccc1O`: the inhibition is 8% in experiment [2] and “Dose-dependent effect” in experiment [3].

Turning to `O=C(NCc1cc(C(F)(F)F)cc(C(F)(F)F)c1)c1cc(Cl)ccc1O`, the inhibition in experiment [1] was 36%; in experiment [2], 63%; in experiment [3] it was “Dose-dependent effect”.

With `CC(=O)Oc1ccc(Cl)cc1C(=O)Nc1cc(C(F)(F)F)cc(C(F)(F)F)c1`, the results for the inhibition in experiment [1], in experiment [2] and in experiment [3] were 0%, 4% and “Dose-dependent effect”, respectively.

On to `N#Cc1ccc(O)c(C(=O)Nc2cc(C(F)(F)F)cc(C(F)(F)F)c2)c1`, for which the figures for the inhibition in experiment [1], in experiment [2] and in experiment [3] were 15%, 53% and “Dose-dependent effect”, respectively.

Consider `O=C(Nc1cc(C(F)(F)F)cc(C(F)(F)F)c1)c1cc(Cl)ccc1OCc1ccccc1`, for which the values for the inhibition in experiment [1], in experiment [2] and in experiment [3] were 0%, 6% and “Dose-dependent effect”, respectively.

For the compound `O=C(Nc1cccc(C(F)(F)F)c1)c1cc(Cl)ccc1O`, the inhibition is 37% in experiment [1], 91% in experiment [2] and “Dose-dependent effect” in experiment [3].

Turning to `O=C(Nc1cc(C(F)(F)F)cc(C(F)(F)F)c1)c1cc(-c2ccc(F)cc2F)ccc1O`, the inhibition in experiment [1] was 5%; in experiment [2], 31%; in experiment [3], “Dose-dependent effect”.

Regarding `O=C(Nc1cccc(C(F)(F)F)c1C(F)(F)F)c1cc(Cl)ccc1O`, the results for the inhibition in experiment [1], in experiment [2] and in experiment [3] were 29%, 77% and “Dose-dependent effect”, respectively.

As for `O=C(Nc1cc(C(F)(F)F)cc(C(F)(F)F)c1)c1ccc(C(F)(F)F)cc1O`, the inhibition in experiment [1] was 32%; in experiment [2] it was 79%; in experiment [3], “Dose-dependent effect”.

`O=C(Nc1cc(C(F)(F)F)cc(C(F)(F)F)c1)c1cc([N+](=O)[O-])ccc1O`: the results for the inhibition in experiment [1], in experiment [2] and in experiment [3] were 33%, 78% and “Dose-dependent effect”, respectively.

On to `O=C(Nc1cc(C(F)(F)F)cc(C(F)(F)F)c1)c1cc(F)ccc1O`, for which the inhibition in experiment [1] was 0%; in experiment [2] it was 55%; in experiment [3], “Dose-dependent effect”.

In the case of `Cc1cc(Cl)cc(C(=O)Nc2cc(C(F)(F)F)cc(C(F)(F)F)c2)c1O`, the figures for the inhibition in experiment [1], in experiment [2] and in experiment [3] were 33%, 78% and “Dose-dependent effect”, respectively.
